Assays:
M. tuberculosis = assay: Potentiation of ethionamide cell test (High Content Screening); type: cell-based; settings: ligand concentration necessary to potentiate ten times the activity of ethionamide, constant ethionamide 0.1 μg/mL (1/10 of its CMI99), 50% inhibition of bacterial growth
Method: Potentiation of Ethionamide Cell Test
The test used made it possible to ascertain that these compounds were capable of potentiating the bactericide activity of ethionamide on M. tuberculosis alone. This test was a “High Content Screening” (HCS) or dense content screening test. HCS tests were performed on cell cultures that enable certain phenotypic features of a microorganism (e.g. a bacterium) in a given environment to be studied. The phenotypic changes observed can range from the increase (or decrease) of the production of certain marked proteins to the modification of the morphology of the microorganism under consideration. The method is described in the following publication: “Ethionamide Boosters: Synthesis, Biological Activity, and Structure-Activity Relationships of a Series of 1,2,4-Oxadiazole EthR Inhibitors”, M. Flipo et al., Journal of Medicinal Chemistry, 2011, 54(8), 2994-3010.
This test aims to determine the ligand concentration necessary to potentiate ten times the activity of ethionamide (ETH).
To measure the ligand concentration necessary for potentiating ten times the activity of ETH, a constant concentration of ethionamide (0.1 μg/mL corresponding to 1/10 of its CMI99) was chosen. By varying the ligand concentration, the concentration necessary to inhibit 50% of the bacterial growth, i.e. the concentration necessary to potentiate ten times the activity of ethionamide, was determined. This concentration was denoted EC50.

[1] = Measurement of the solubility; type: physicochemical; settings: aqueous buffer, kinetic from dmso stock; PBS at pH 7.4, 24 h at RT, LC-MS, ratio of mass signals PBS/MeOH
Method: Measurement of the Solubility
40 μL of a solution at 10 mM in DMSO of the sample was added to 1.96 mL MeOH or PBS at pH 7.4. The samples were then agitated during 24 h at RT, centrifuged during 5 min and then filtrated on filters of 0.45 μm size. 20 μL of each solution were then added to 180 μL MeOH and then analyzed by LC-MS. The solubility was determined as ratio of the surfaces of the mass signals PBS/MeOH.

SMILES | EC50 (M. tuberculosis; Table III) [µM] | other results
O=C(CCC(F)(F)F)N1CCC(c2cccc(C(F)(F)F)c2)CC1 [BDM_70546] | 0.001 | 
CC(C)CCC(=O)N1CCN(c2ccccc2)CC1 [BDM_44810] | 0.06 | EC50 (M. tuberculosis; Table II): 0.06 µM
O=C(CCC(F)(F)F)N1CCC(c2ccc(O)cc2)CC1 [BDM_45572] | 0.28 | 
O=C(CCCC(F)(F)F)N1CCN(c2ccc(F)cc2)CC1 [BDM_44820] | 0.14 | 
O=C(CCC(F)(F)F)N1CCC(Cc2ccccc2)CC1 [BDM_70670] | 0.054 | 
CC(C)CCC(=O)N1CCN(c2ccc(F)cc2)CC1 [BDM_44821] | 0.1 | EC50 (M. tuberculosis; Table II): 0.1 µM
O=C(CCC(F)(F)F)N1CCN(Cc2ccccc2)CC1 [BDM_70719] | 1.1 | 
O=C(CCCC(F)(F)F)N1CCN(c2ccc(Cl)cc2)CC1 [BDM_44812] | < 0.02 | 
O=C(CCC(F)(F)F)N1CCN(c2ccc(F)cc2F)CC1 [BDM_70669] | 0.021 | 
O=C(CCC(F)(F)F)N1CCC(c2ccc(Cl)cc2)CC1 [BDM_70535] | 0.12 | 
O=C(CCC(F)(F)F)N1CCC(c2ccc(F)cc2)C1 (stereo not shown) [BDM_70717] | 0.009 | EC50 (M. tuberculosis; Table I): 0.009 µM
O=C(CCC(F)(F)F)N1CCC(c2c(F)cc(F)cc2F)CC1 [BDM_71148] | 0.001 | 
O=C(CCCC(F)(F)F)N1CCN(c2ccccc2)CC1 [BDM_44809] | 0.07 | 
COc1ccc(C2CCN(C(=O)CCC(F)(F)F)CC2)cc1 [BDM_70537] | 0.002 | 
Cc1ccc(C2CCN(C(=O)CCC(F)(F)F)CC2)cc1 [BDM_70663] | 0.026 | 
O=C(CCC(F)(F)F)N1CCN(c2ccc(Cl)cc2)CC1 [BDM_44811] | 0.01 | 
O=C(CCC(F)(F)F)N1CCC(c2ccncc2)CC1 [BDM_70542] | 0.33 | 
O=C(CCC(F)(F)F)N1CCC(c2ccc(C(F)(F)F)cc2)CC1 [BDM_70667] | 0.3 | 

SMILES | EC50 (M. tuberculosis; Table III) [µM] | other results
O=C(CCC(F)(F)F)N1CCN(c2ccccc2)CC1 [BDM_44808] | 0.01 | 
O=C(CCC(F)(F)F)N1CCC(c2ccccc2F)CC1 [BDM_70666] | 0.001 | 
O=C(CCC(F)(F)F)N1CCC(c2cccc(Cl)c2)CC1 [BDM_70668] | 0.0005 | 
O=C(CCC(F)(F)F)N1CCC(c2ccc(Cl)c(Cl)c2)CC1 [BDM_70716] | 0.025 | 
COc1cccc(C2CCN(C(=O)CCC(F)(F)F)CC2)c1 [BDM_70538] | 0.14 | 
Cc1ccccc1C1CCN(C(=O)CCC(F)(F)F)CC1 [BDM_70665] | 0.035 | 
O=C(CCCC(F)(F)F)N1CCC(c2ccccc2)CC1 [BDM_44648] | < 0.01 | EC50 (M. tuberculosis; Table I): < 0.01 µM; solubility at 24 h [1]: 42.9 µg/mL
O=C(CCC(F)(F)F)N1CCC(c2ccccc2Cl)CC1 [BDM_70534] | 0.11 | 
O=C(CCC(F)(F)F)N1CCC(c2ccc(F)cc2)CC1 [BDM_44751] | 0.001 | EC50 (M. tuberculosis; Table I): 0.001 µM; solubility at 24 h [1]: 51.9 µg/mL
O=C(CCC(F)(F)F)N1CCC(c2ccccc2C(F)(F)F)CC1 [BDM_70536] | 0.77 | 
O=C(CCC(F)(F)F)N1CCC(c2ccccc2)CC1 [BDM_44647] | 0.0008 | EC50 (M. tuberculosis; Table I): 0.0008 µM; solubility at 24 h [1]: 50.4 µg/mL
Cc1cccc(C2CCN(C(=O)CCC(F)(F)F)CC2)c1 [BDM_70664] | 0.001 | 
CC(C)CCC(=O)N1CCN(c2ccc(Cl)cc2)CC1 [BDM_44813] | 0.1 | EC50 (M. tuberculosis; Table II): 0.1 µM
O=C(CCC(F)(F)F)N1CCN(c2ccc(F)cc2)CC1 [BDM_44819] | 0.027 | 
CC(C)CCC(=O)N1CCC(c2ccccc2)CC1 [BDM_44649] | 0.06 | EC50 (M. tuberculosis; Table II): 0.06 µM
COc1ccccc1C1CCN(C(=O)CCC(F)(F)F)CC1 [BDM_70540] | 0.14 | 
O=C(CCC(F)(F)F)N1CCC(c2cccc(F)c2)CC1 [BDM_70531] | 0.0008 | 

Reference: patent US9957249B2, “Saturated nitrogen and N-acylated heterocycles potentiating the activity of an active antibiotic against Mycobacteria” (Universite de Droit et de la Sante de Lille 2, priority 2012, dated 2018)
